The values below come from ChEMBL document CHEMBL3714714, “Hepatocyte nuclear factor 4alpha modulator compounds” (2005).

For assay [1], the target named is T1, Hepatocyte nuclear factor 4-alpha (Rattus norvegicus) (UniProt P22449).
T1 sequence (whole entry): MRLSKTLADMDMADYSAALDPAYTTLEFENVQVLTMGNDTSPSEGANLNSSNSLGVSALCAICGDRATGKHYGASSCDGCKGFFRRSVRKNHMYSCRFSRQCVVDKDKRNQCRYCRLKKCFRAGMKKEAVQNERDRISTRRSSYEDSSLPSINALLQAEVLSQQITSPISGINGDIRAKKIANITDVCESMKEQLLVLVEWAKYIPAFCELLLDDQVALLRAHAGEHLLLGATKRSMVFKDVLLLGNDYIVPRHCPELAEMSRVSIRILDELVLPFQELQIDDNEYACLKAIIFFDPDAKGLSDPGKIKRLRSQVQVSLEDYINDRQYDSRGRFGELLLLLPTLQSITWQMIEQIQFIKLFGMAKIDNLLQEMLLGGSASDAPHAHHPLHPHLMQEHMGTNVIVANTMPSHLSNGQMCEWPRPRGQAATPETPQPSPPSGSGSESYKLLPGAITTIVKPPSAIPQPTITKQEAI
The assay can be described thus: Antagonist activity against rat HNF4alpha1 expressed in African green monkey CV1 cells assessed as reduction in endogenous agoinst-induced luciferase expression incubated for 24 hrs by firefly luciferase reporter gene assay relative to control. Type of assay: functional, cell-based. The note with it: CV-1. For orientation: A reporter such as luciferase makes a cellular process visible.

Assay [2] concerns the target T2, Hepatocyte nuclear factor 4-alpha (Rattus norvegicus, UniProt P22449).
T2 sequence (P22449 whole entry): T1 sequence (whole entry)
The assay is described as follows: Antagonist activity against rat HNF4alpha1 expressed in African green monkey CV1 cells assessed as reduction in endogenous agoinst-induced luciferase expression incubated for 24 hrs by firefly luciferase reporter gene assay. Type of assay: functional, cell-based, CV-1.

The target in assay [3] is T3, Retinoic acid receptor RXR-alpha (Homo sapiens, UniProt P19793).
T3 sequence (P19793 whole entry): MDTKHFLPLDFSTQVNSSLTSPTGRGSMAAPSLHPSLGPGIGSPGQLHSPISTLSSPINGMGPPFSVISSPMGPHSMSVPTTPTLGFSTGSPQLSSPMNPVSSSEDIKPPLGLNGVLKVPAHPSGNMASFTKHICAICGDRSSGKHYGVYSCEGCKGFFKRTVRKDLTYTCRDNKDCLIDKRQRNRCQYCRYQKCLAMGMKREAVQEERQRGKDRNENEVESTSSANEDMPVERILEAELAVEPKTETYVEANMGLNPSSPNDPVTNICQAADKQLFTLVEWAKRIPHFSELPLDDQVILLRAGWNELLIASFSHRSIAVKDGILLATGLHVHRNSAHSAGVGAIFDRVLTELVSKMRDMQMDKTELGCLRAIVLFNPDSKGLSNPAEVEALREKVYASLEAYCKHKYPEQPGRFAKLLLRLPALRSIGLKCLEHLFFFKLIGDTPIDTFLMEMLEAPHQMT
The assay can be described thus: Displacement of [3H]9-cis-retinoic acid from RXRalpha (unknown origin) by radioligand binding assay.

Assay [4] concerns the target T4, Hepatocyte nuclear factor 4-alpha (Homo sapiens, UniProt P41235).
T4 sequence (P41235 whole entry): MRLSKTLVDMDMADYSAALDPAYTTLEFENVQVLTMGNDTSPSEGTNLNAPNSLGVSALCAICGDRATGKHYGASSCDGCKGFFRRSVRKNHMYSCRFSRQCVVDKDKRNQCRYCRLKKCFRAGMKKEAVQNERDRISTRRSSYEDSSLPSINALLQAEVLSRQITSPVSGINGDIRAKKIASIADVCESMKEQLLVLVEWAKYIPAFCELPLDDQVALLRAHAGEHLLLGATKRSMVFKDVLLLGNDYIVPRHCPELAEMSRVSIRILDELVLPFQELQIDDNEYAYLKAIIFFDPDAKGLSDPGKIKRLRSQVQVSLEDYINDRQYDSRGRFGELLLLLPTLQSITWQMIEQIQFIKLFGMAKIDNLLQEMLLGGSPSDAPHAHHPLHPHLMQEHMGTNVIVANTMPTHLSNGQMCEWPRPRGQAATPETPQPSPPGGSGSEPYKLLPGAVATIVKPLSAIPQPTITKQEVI
The assay is described as follows: Displacement of [3H]methyl4-[5,6,7,8-tetrahydro-5,5,8,8-tetramethyl-3-ethyloxy-2-naphthalenyl]benzoyl benzoate from HNF4alpha (unknown origin) by radioligand binding assay.

Assay [5] addresses T2, Hepatocyte nuclear factor 4-alpha. The assay can be described thus: Agonist activity at rat HNF4alpha1 expressed in African green monkey CV1 cells incubated for 24 hrs by firefly luciferase reporter gene assay. Type of assay: functional, cell-based, CV-1.
Assay [6] deals with T1, Hepatocyte nuclear factor 4-alpha (Rattus norvegicus). The assay is described as follows: Agonist activity at rat HNF4alpha1 expressed in African green monkey CV1 cells incubated for 24 hrs by firefly luciferase reporter gene assay relative to LG0100695. The assay is classed as functional, cell-based. Conditions: CV-1.

For orientation: IC50 means the midpoint of a concentration-inhibition curve. The term Ki denotes a measure of affinity in units of concentration, obtained from inhibition or displacement. For `CC1(C)CCC(C)(C)c2cc(/C(=N\Nc3ccccc3)c3ccc(C(=O)O)cc3)ccc21`, the Efficacy in assay [1] was 100%. In assay [2], the half-inhibitory concentration (IC50) was 103 nM. The values for the Ki in assay [3] and in assay [4] were more than 10000 nM and 514 nM, respectively.

What is called EC50 is the concentration giving half of the maximal effect. Consider `CC1(C)CCC(C)(C)c2c1cc(C(=O)c1ccc(C(=O)O)cc1)c(OCC(F)F)c2[N+](=O)[O-]`, for which the midpoint of the response in assay [5], the EC50, lay at 594 nM. The Efficacy in assay [6] was 57%. Moreover, the values for the inhibition constant (Ki) in assay [3] and in assay [4] were more than 10000 nM and 163 nM, respectively.

For the molecule `Cc1cc2c(cc1C(OCc1ccc(SC(F)(F)F)cc1)c1ccc(C(=O)O)cc1)C(C)(C)CCC2(C)C` (stereo unspecified), the Ki was determined as 3000 nM in assay [3] and 1190 nM in assay [4].

`COc1c(C(=O)c2ccc(C(=O)O)cc2)cc2c(c1C)N(C)CCC2(C)C`: in assay [5], a half-maximal effect (EC50) was put at 2850 nM. The Efficacy in assay [6] stood at 42%. Further, the inhibition constant Ki in assay [3] is more than 30000 nM; in assay [4], 4600 nM.

`CCOc1cc2c(cc1C(=O)c1ccc(C(=O)O)cc1)C(C)(C)CCO2` showed a 50% effective concentration (EC50) in assay [5] of 2240 nM. For the same molecule, the Efficacy in assay [6] was 68%. Besides, the Ki in assay [3] was 3000 nM; in assay [4], 721 nM.

In assay [5], `CCOc1cc2c(cc1C(=O)c1ccc(C(=O)O)cc1)C(C)(C)CCC2(C)C` displayed an EC50 of 263 nM. The molecule also yielded an Efficacy in assay [6] of 100%. Moreover, the inhibitory constant (Ki) was determined as 824 nM in assay [3] and 110 nM in assay [4].

On to `CCOc1cc2c(cc1/C(=N/Nc1cc(F)ccc1F)c1ccc(C(=O)O)cc1)C(C)(C)CCC2(C)C`, for which, in assay [1], the Efficacy turned out to be 110%. For the same molecule, the IC50 in assay [2] amounted to 1 nM. The Ki in assay [3] came to 3000 nM; in assay [4] it was 215 nM.

In the case of `CC1(C)CCC(C)(C)c2cc(C(=O)c3ccc(C(=O)O)cc3)c(OCC(F)(F)F)cc21`, in assay [5], the 50% effective concentration (EC50) turned out to be 2190 nM. The same molecule displayed an Efficacy in assay [6] of 33%. Moreover, the inhibitory constant (Ki) in assay [3] stood at 1500 nM; in assay [4] it was 96 nM.

Turning to `Cc1ccc(S(=O)(=O)Nc2c(C)c(Cc3ccc(C(=O)O)cc3)cc3c2C(C)(C)CCC3(C)C)cc1`, the Efficacy in assay [1] was 121%. For the same molecule, in assay [2], the IC50 was 22 nM. The Ki in assay [3] was more than 30000 nM; in assay [4] it was 5210 nM.

In the case of `CCOc1cc2c(cc1/C(=N/OCc1cccc(F)c1F)c1ccc(C(=O)O)cc1)C(C)(C)CCC2(C)C`, in assay [1], the Efficacy came out at 118%. In addition, the IC50 in assay [2] came out at 35 nM. Besides, the inhibitory constant (Ki) in assay [3] was more than 30000 nM; in assay [4], 966 nM.

With `Cc1ccc(C)c(N/N=C(\c2ccc(C(=O)O)cc2)c2cc3c(cc2C)C(C)(C)CCC3(C)C)c1`, the Efficacy in assay [1] turned out to be 103%. Also, the IC50 in assay [2] was determined as 19 nM. The Ki in assay [3] is more than 30000 nM; in assay [4], 1010 nM.

`CCOc1cc2c(cc1C(=O)c1ccc(C(=O)C(=O)O)cc1)C(C)(C)CCC2(C)C` yielded an EC50 in assay [5] of 1140 nM. The molecule also returned an Efficacy in assay [6] of 95%. The Ki in assay [3] was more than 10000 nM; in assay [4] it was 364 nM.

Molecule `Cc1c(C(=O)c2ccc(C(=O)O)cc2)cc2c(c1[N+](=O)[O-])OCCC2(C)C` yielded a 50% effective concentration (EC50) in assay [5] of 2950 nM. In assay [6], this molecule registered an Efficacy of 88%. The inhibition constant Ki is more than 30000 nM in assay [3] and 2200 nM in assay [4].

Turning to `CCCCOC(c1ccc(C(=O)O)cc1)c1cc2c(cc1OCC)C(C)(C)CCC2(C)C` (stereo unspecified), in assay [1], the Efficacy turned out to be 108%. The IC50 in assay [2] stood at 4 nM. Also, the inhibition constant Ki is 2700 nM in assay [3] and 339 nM in assay [4].

`Cc1cc2c(cc1C(NCc1cccc(F)c1)c1ccc(C(=O)O)cc1)C(C)(C)CCC2(C)C` (stereo unspecified): the Ki came out at 6500 nM in assay [3] and 1400 nM in assay [4].

Take `Cc1cc2c(cc1C(OCc1ccccc1F)c1ccc(C(=O)O)cc1)C(C)(C)CCC2(C)C` (stereo unspecified): the Efficacy in assay [1] was 106%. For the same molecule, the half-inhibitory concentration (IC50) in assay [2] was 4 nM. The Ki was determined as 5200 nM in assay [3] and 580 nM in assay [4].

For `CCOc1cc2c(cc1/C(=N/OCCC(C)C)c1ccc(C(=O)O)cc1)C(C)(C)CCC2(C)C`, the Efficacy in assay [1] was 119%. For the same molecule, the half-maximal inhibitory concentration (IC50) in assay [2] was 3 nM. For the same molecule, the Ki in assay [3] was 4600 nM; in assay [4], 244 nM.

For `Cc1cc2c(c(O)c1C(=O)c1ccc(C(=O)O)cc1)C(C)(C)CCC2(C)C`, the response in assay [5] was half-maximal at 2640 nM (EC50). In assay [6], the Efficacy was 103%. The Ki in assay [3] was more than 30000 nM; in assay [4], 710 nM.

Molecule `Cc1c(C(=O)c2ccc(C(=O)O)cc2)cc2c(c1[N+](=O)[O-])C(C)(C)CCC2(C)C` displayed a 50% effective concentration (EC50) in assay [5] of 2230 nM. In assay [6], this molecule displayed an Efficacy of 43%. For the same molecule, the values for the Ki in assay [3] and in assay [4] were more than 5000 nM and 165 nM, respectively.

Regarding `CCCCCCO/N=C(\c1ccc(C(=O)O)cc1)c1cc2c(cc1OCC)C(C)(C)CCC2(C)C`, the Efficacy in assay [1] was 120%. Further, the half-inhibitory concentration (IC50) in assay [2] turned out to be 1 nM. Moreover, the inhibitory constant (Ki) stood at 1900 nM in assay [3] and 322 nM in assay [4].
